Results as given in US5628328A, “Method for measuring muscle mass” (priority 1995, dated 1997).
Where two headings read alike, the source gives them in different places.

Columns and labels:
[1] = set-up: species or system human; conditions: in vivo
Description: Normal volunteers with no evidence or history of diabetes mellitus or of cardiac, liver, renal or pulmonary diseases were studied. The subjects consisted of 3 males and 1 female, ranging in age from 31 to 37 years, in body weight from 47 to 92 kg, and in body mass index (BMI) from 19.2 to 25.5. The purpose and possible risks of the study were explained to all subjects, and their voluntary written consent was obtained. The study protocol was approved by the Committee for the Protection of Human Subjects of the Institutional Review Board at Vanderbilt University School of Medicine. All studies were performed at the Clinical Research Center (CRC). Subjects were placed on balanced weight-maintenance diets for at least one week before the start of the study. Meat was excluded from the subjects' diets for three days before the study and during the study.
All studies were performed after a 10-12 hour overnight fast. On the morning of the experiment (6.30 to 7.00 hours), an 18-gauge Angiocatheter™ (Benton Dickinson, Sandy, Utah) was placed in a superficial hand vein of the nondominant arm for blood sampling. The hand was heated to 55° C. to ensure complete arterialization (Abumrad, N.N. et al., "Use of a heated superficial hand vein as an alternative site for the measurement of amino acid concentrations and for the study of glucose and alanine kinetics in man," Metabolism (1981) 30:936-940). In addition, a 16-gauge angiocatheter was inserted into the contralateral forearm vein for the infusion of L-3-[methyl-^2 H3 ]-histidine (MSD Isotopes, Montreal, Canada). Finally, another catheter was threaded retrograde into the brachial vein of the dominant arm and used for sampling of the forearm tissue.
(§1) Each study was four days in duration. Starting at t=0 (8.00 hours), subjects were administered a bolus infusion of L-3-[methyl^2 H3 ]-histidine (D3 -3-methylhistidine) at 0.13 μmol/kg into the forearm vein of the dominant arm. The infusate was passed through a Millex-GS sterilizing filter (0.22 μm; Millipore Products Divisions, Bedford, Mass.) before the infusion. Blood samples were obtained from the superficial hand vein and from the deep forearm vein at 0, 1, 2, 5, 10, 15, 30, 45, 90, 150, 210, 270, 330, and 720 min. postinjection. During this time, the subjects were required to stay at the Clinical Research Center, although they were allowed to ambulate freely within their rooms. Free access to food and drink was allowed after the 330-min sample. After 720 min, the catheters were removed and the patients were allowed to go home. For the following three days, the subjects returned to the CRC each morning before eating for further blood sampling by percutaneous venous puncture at 1,440, 2,880, and 4,320 min postinjection. Urine was collected over 24 hour periods the day before and for three days after tracer infusion.
Blood was collected in heparinized syringes, transferred to tubes containing Na2 EDTA (15 mg/tube), and centrifuged. The plasma obtained was immediately placed on ice. An aliquot of the plasma was processed for determination of 3-methylhistidine concentration as well as the L-3-[methyl-^2 H3 ]-histidine:3-methylhistidine isotope enrichment. The remainder of the plasma was frozen at -70° C. The urine obtained was processed for the determination of creatinine both as a measure of the completeness of the collection (Pencharz, P. B. et al., "The effect of an energy-restricted diet on the protein metabolism of obese adolescents: nitrogen-balance and whole-body nitrogen turnover," Clin. Sci. (1980) 59:13-18), and for the estimation of lean body mass (Blackburn, G. L. et al., "Nutritional and metabolic assessment of hospitalized patients," J. Parenter. Enteral. Nutr. (1977) 1:11-22). […]

[2] = set-up: species or system human; conditions: in vivo; remark: listed apart in the source
Description: as §1
Blood was collected in heparinized syringes, transferred to tubes containing Na2 EDTA (15 mg/tube), and centrifuged. The plasma obtained was immediately placed on ice. An aliquot of the plasma was processed for determination of 3-methylhistidine concentration as well as the L-3-[methyl-^2 H3 ]-histidine:3-methylhistidine isotope enrichment. The remainder of the plasma was frozen at -70° C. […] Urinary 3-methylhistidine concentration and production were also measured (Rathmacher, J. A. et al., "Gas chromatographic-mass spectrometric analysis of stable isotopes of 3-methylhistidine in biological fluids: application to plasma kinetics in vivo," Biol. Mass Spectrom. (1992) 21:560-566). […]

[3] = sheep, cited from earlier work
[4] = cited from earlier work
[5] = adult rat, Millward et al. 1980

3MH Production [1]: 3.1 µmol/kg/day
L0,1 fractional transfer rate [1]: .004 min⁻¹
L1,2 fractional transfer rate [1]: .06 min⁻¹
L2,3 fractional transfer rate [1]: .002 min⁻¹
L3,2 fractional transfer rate [1]: .009 min⁻¹
M1, compartment mass [1]: 603 nmol/kg
M2, compartment mass [1]: 912 nmol/kg
M3, compartment mass [1]: 7938 nmol/kg
R01 mass transfer rate [1]: 2.2 nmol/kg/min
R12 mass transfer rate [1]: 53 nmol/kg/min
R21 mass transfer rate [1]: 51 nmol/kg/min
R23 mass transfer rate [1]: 9.6 nmol/kg/min
R32 mass transfer rate [1]: 7.9 nmol/kg/min
Size of compartment 2 relative to compartment 1 [1]: 1.5 times
Size of compartment 3 relative to compartment 1 [1]: 13 times
Urinary 3MH loss [1]: 100 % of total
Model 3-methylhistidine production above urinary estimate [2]: 16%
Model 3-methylhistidine production versus urinary production [2]: qualitatively similar
Urinary 3-methylhistidine production versus model estimate [2]: lower than the model estimate
SMILES: Cn1cnc(C[C@H](N)C(=O)O)c1 [3-methylhistidine]
Plasma levels of 3-methylhistidine over time [1]: did not change over the four days of the study
3MH Production ([3]; n=36, from model): 10.1 µmol/kg/day
M1, compartment mass ([3]; n=36): 4693 nmol/kg
M2, compartment mass ([3]; n=36): 11634 nmol/kg
M3, compartment mass ([3]; n=36): 16494 nmol/kg
R01 mass transfer rate ([3]; n=36): 1.4 nmol/kg/min
R03 mass transfer rate ([3]; n=36): 5.7 nmol/kg/min
R12 mass transfer rate ([3]; n=36): 930 nmol/kg/min
R21 mass transfer rate ([3]; n=36): 928 nmol/kg/min
R23 mass transfer rate ([3]; n=36): 80 nmol/kg/min
R32 mass transfer rate ([3]; n=36): 84 nmol/kg/min
L0,1 fractional transfer rate ([3]; number 40): .0003 min⁻¹
L0,3 fractional transfer rate ([3]; number 40): .0004 min⁻¹
L1,2 fractional transfer rate ([3]; number 40): .08 min⁻¹
L2,1 fractional transfer rate ([3]; number 40): .21 min⁻¹
L2,3 fractional transfer rate ([3]; number 40): .005 min⁻¹
L3,2 fractional transfer rate ([3]; number 40): .007 min⁻¹
Urinary 3MH loss ([3]; number 40): 17 % of total
Urinary excretion of total daily 3-methylhistidine produced [3]: 15%
Contribution of skin and intestine to 3-methylhistidine excreted per day in urine ([4]; adult rat, Millward and Bates): 17%
Contribution of gastrointestinal tract to 3-methylhistidine excreted [4, 5]: 10%
Contribution of skeletal muscle to 3-methylhistidine excreted [4, 5]: 25%
Contribution of skin to 3-methylhistidine excreted [4, 5]: 7%
Reutilization for protein synthesis ([4]; no specific tRNA): not reutilized for protein synthesis
Share of total bound 3-methylhistidine in skeletal muscle ([4]; rat organs, Haverberg et al., skin and intestine not assessed): 98%
Urinary excretion ([4]; rat): quantitatively excreted in the urine
Contribution of small intestine to 24-hour urinary excretion ([4]; rats, duodenoileostomy): did not make a significant contribution
